Series [1] in a line: Micelle formation in perfluorooctanes by FTIR (C-H stretching frequency). It is filed as physicochemical. To be noted: in F-octanes. The method, then: A series of solutions of CF3 (CF2) 7 (CH2) 15 CH3 (F8H16; 0.02 mol/L to 0.2 mol/L) were prepared in F-octanes (purity≥98%) and the frequency of the carbon to hydrogen (--C--H) stretching mode (T=50° C.) measured using FTIR (Fourier Transform Infrared Spectroscopy). The formation of F8H16 micelles in a fluorocarbon continuous phase results in the transfer of the F8H16 hydrocarbon groups from a fluorocarbon rich environment in the molecular solution to a hydrocarbon rich environment at the interior of the micelles. The occurrence of this phase change can be measured as a change in the FTIR stretching frequency for the carbon-hydrogen bonds in the --CH2 groups of the FmHn molecules. […] The inflection point in the curve confirmed the existence of F8H16 micelles and was used to define the critical micelle concentration at about 0.05 mol/L.
A series of solutions of CF3 (CF2) 5 (CH2) 13 CH3 (F6H14; 0.02 mol/L to 0.2 mol/L) were prepared in F-octanes (purity≥98%) and the frequency of the carbon to hydrogen (--C--H) stretching mode (T=25° C.) measured using FTIR. The formation of F6H14 micelles was measured as a change in the FTIR stretching frequency for the carbon-hydrogen bonds in the --CH2 groups of the FmHn molecules. […] The inflection point in the curve confirmed the existence of F6H14 micelles and was used to define the critical micelle concentration at about 0.1 mol/L.

The conditions of series [2]: cited from earlier work; for Log Po/w: octanol/water.
Series [3] is described as follows: Titration of hydrocarbon oil into F-octanes until phase separation; solubilization by diblock dispersing agent. To be noted: for amount of hydrocarbon oil at which phase separation occurred: titrated into F-Octanes (8.82 g), before dispersing agent.

SMILES strings stand for the structures.

For `CCCCCCCCCCCCCCC(F)(F)C(F)(F)C(F)(F)C(F)(F)C(F)(F)C(F)(F)F` [Example F6H14], the critical micelle concentration result in series [1] (T=25° C.) is reported as “about 0.1 mol/L”.
Turning to `CCCCCCCCCCCCCCCCC(F)(F)C(F)(F)C(F)(F)C(F)(F)C(F)(F)C(F)(F)C(F)(F)C(F)(F)F` [Example F8H16, 1-(F-octyl)hexadecane], the critical micelle concentration result in series [1] (T=50° C.) is listed as “about 0.05 mol/L”.
For `Clc1cccc(Cl)c1N=C1NCCN1` [^3 H-clonidine], the “Octanol/water partition coefficient Po/w” value in series [2] is given as 25.1.
For `CC(=O)[C@@]1(O)CC[C@H]2[C@@H]3C[C@H](C)C4=CC(=O)C=C[C@]4(C)[C@@]3(F)[C@@H](O)C[C@@]21C` [^3 H-fluorometholone], the “Octanol/water partition coefficient Po/w” value in series [2] was 1.26 × 10^2.
Consider `COc1ccc(C(=O)CC(=O)c2ccc(C(C)(C)C)cc2)cc1` [^3 H-parsol 1789], for which, in series [2], the “Octanol/water partition coefficient Po/w” value was 5.0 × 10^6 and the “Log Po/w” value is 6.7.
Turning to `CC(C)(C)NCC(O)COc1cccc2c1CCCC2=O` (stereo not drawn) [^14 C-bunolol], in series [2], the “Octanol/water partition coefficient Po/w” value was 2.51 × 10^2.
On to `CCCCC(CC)COC(=O)c1ccc(N(C)C)cc1` (stereo not drawn) [^14 C-padimate-o], for which the “Octanol/water partition coefficient Po/w” value in series [2] was 3.98 × 10^6.
Consider `FC(F)(F)C(Cl)Br` (stereo not drawn) [halothane], for which, in series [2], the “Octanol/water partition coefficient Po/w” value is recorded as 2.00 × 10^2 and the “Log Po/w” value is recorded as 2.30.
Take `COC(=O)c1ccccc1O` [methyl salicylate]: in series [3], the “amount of hydrocarbon oil at which phase separation occurred” value was 10 to 20 µL. The “solubilization in F-Octanes” value in series [3] (with F6H14 (17.3%, w/v)) is recorded as 2.2 %, v/v.
For `CCCCCC` [n-hexane], in series [3], the “amount of hydrocarbon oil at which phase separation occurred” value was 1700 µL. In series [3] (with F8H16 (7.82%, w/v)), the “solubilization in F-Octanes” value is listed as 36.5 %, v/v.
On to `CCCCNc1ccc(C(=O)OCCN(C)C)cc1` [tetracaine], for which, in series [2], the “Octanol/water partition coefficient Po/w” value is on record as 79.4.

These data come from patent US5733526A, “Hydrocarbon oil/fluorochemical preparations and methods of use” (priority 1995, dated 1998).
